Measured values as given in patent US7501397B2, “Helical peptidomimetics with enhanced activity” (The Brigham and Women's Hospital, Inc., priority 2004, dated 2009).
Read-outs that look alike come from different tables or passages of the source. Blank lines part the entries; values can stand above or below the molecule they belong to. Non-standard residues stand in square brackets, D forms with d. Residues, ends and D or L forms follow the SMILES beside them. *: point of attachment. Boc = CC(C)(C)OC(=O)*; Aib = CC(C)(N)C(=O)O; Bn = c1ccc(C*)cc1

Assays:
γ-secretase [1] = biological target: T1, γ-secretase (Homo sapiens, UniProt P49768); assay: cell-free γ-secretase assay using detergent-solubilized membranes from HeLa cells and a recombinant APP-based substrate; type: biochemical; parameters: detergent-solubilized membranes from HeLa cells; endogenous in cells; host or cells: HeLa cells (detergent-solubilized membranes)
Method: Compounds were tested in a γ-secretase assay using detergent-solubilized membranes from HeLa cells and a recombinant APP-based substrate (Table 2, 18). […] Moreover, the γ-secretase inhibition appears to show dependence on length.

[2] = system: Aβ production in Chinese hamster ovary (CHO) cells stably transfected with human APP; assay: cell-based assay of total Aβ production in CHO cells stably transfected with human APP
Description: Based on the helical model for the APP transmembrane domain, short peptides were designed to adopt a similar conformation that block γ-secretase activity. Judicious replacement of selected residues of short APP-derived peptides with 2-aminoisobutyric acid (Aib), a known helix-inducing amino acid (19, 20), provided peptides that, in principle, mimic the γ-secretase cleavage site on one face of the helix, with Aib residues on the other face. Aib-containing peptides were identified that inhibit Aβ production in APP-transfected cells with 50 percent inhibitory concentrations (IC50's) as low as 2 μM. […] The crystal structure of this compound has been determined, and the peptide is fully helical (19). In certain embodiments the compounds of the invention have structures that are based on the partial APP sequence Val-Gly-Gly-Val-Val-Ile-Ala-Thr-Val-Ile-Val-Ile (SEQ ID NO:12; see FIG. 1). Basing the structures of the compounds of the invention on the partial APP sequence could enhance in vivo specificity of the compounds.
The top set of peptidomimetics (SEQ ID NOs: 1-5) was designed considering the cleavage leading to Aβ42, and the bottom set (SEQ ID NOs: 6-10) was designed considering the cleavage site leading to Aβ40. IC50 is the concentration of compound that reduced production of total Aβ by 50% in a cell-based assay using Chinese hamster ovary (CHO) cells stably transfected with human APP.
Starting from the reference D-decapeptide having SEQ ID NO:10 (IC50=90 nM), the enantiomers of the helical peptide L-series were tested for inhibitory activity. […] This greater than 40-fold loss of activity compared to the cell-free assay may be due to the need to enter into and/or cross cell membranes or some susceptibility to metabolic degradation.

γ-secretase [3] = biological target: T1, γ-secretase; conditions: photoaffinity labeling; Kornilova et al. 2005; cited from earlier work
γ-secretase [4] = biological target: T1, γ-secretase; parameters: detergent-solubilized membranes from HeLa cells; endogenous in cells; host or cells: HeLa cells (detergent-solubilized membranes); conditions: value from Ref. 22, cited from earlier work
[5] = APP-transfected CHO cells, read-out: IC50, cell-based assay
[6] = 50% inhibition of Aβ40 production, at least three independent experiments, read-out: Cell-free Assay IC50
[7] = CHO cells stably transfected with human APP, total Aβ, read-out: IC50 (concentration that reduced production of total Aβ by 50%)

IC50, in words (γ-secretase [1]): subnanomolar | times more active than the other analogs of the D-series (γ-secretase [1]; D-series, cell-free assay): 100 times | IC50 (γ-secretase [1]; read-out: IC50, cell-free γ-secretase assay): 0.00014 µM
Molecule: CC[C@@H](C)[C@@H](NC(=O)[C@H](NC(=O)[C@H](NC(=O)C(C)(C)NC(=O)CNC(=O)[C@H](NC(=O)OC(C)(C)C)C(C)C)C(C)C)C(C)C)C(=O)NC(C)(C)C(=O)N[C@@H](C(=O)N[C@@H](C(=O)NC(C)(C)C(=O)N[C@@H](C(=O)N[C@@H](C(=O)NC(C)(C)C(=O)OC)[C@H](C)CC)C(C)C)C(C)C)[C@H](C)OCc1ccccc1 [SEQ ID NO:18 D-peptide, Boc-Val-Gly-Aib-Val-Val-Ile-Aib-Thr(OBz)-Val-Aib-Val-Ile-Aib-OMe] (Boc-[dV]G[Aib][dV][dV][dI][Aib][dT](Bn)[dV][Aib][dV][dI][Aib]-OMe)
IC50 [2, 5]: 0.009 ± 0.001 µM | loss of activity in cell-based assay compared to the cell-free assay ([2]; cell-based vs cell-free IC50): greater than 40 fold

IC50 (γ-secretase [1]; [6]): 0.026 ± 0.021 µM
Molecule: CC[C@@H](C)[C@@H](NC(=O)[C@H](NC(=O)[C@H](NC(=O)C(C)(C)NC(=O)CNC(=O)[C@H](NC(=O)C(C)(C)NC(=O)[C@@H](CC(C)C)NC(=O)CNC(=O)OC(C)(C)C)C(C)C)C(C)C)C(C)C)C(=O)NC(C)(C)C(=O)N[C@@H](C(=O)N[C@@H](C(=O)NC(C)(C)C(=O)N[C@@H](C(=O)N[C@@H](C(=O)NC(C)(C)C(=O)OC)[C@H](C)CC)C(C)C)C(C)C)[C@H](C)OCc1ccccc1 [SEQ ID NO:21 D-peptide, Boc-Gly-Leu-Aib-Val-Gly-Aib-Val-Val-Ile-Aib-Thr(OBz)-Val-Aib-Val-Ile-Aib-OMe] (Boc-G[dL][Aib][dV]G[Aib][dV][dV][dI][Aib][dT](Bn)[dV][Aib][dV][dI][Aib]-OMe)

IC50 (γ-secretase [1]; [6]): 11 µM
Molecule: CC[C@H](C)[C@H](NC(=O)[C@@H](NC(=O)[C@@H](NC(=O)C(C)(C)NC(=O)CNC(=O)[C@@H](NC(=O)C(C)(C)NC(=O)[C@H](CC(C)C)NC(=O)CNC(=O)OC(C)(C)C)C(C)C)C(C)C)C(C)C)C(=O)NC(C)(C)C(=O)N[C@H](C(=O)N[C@H](C(=O)NC(C)(C)C(=O)N[C@H](C(=O)N[C@H](C(=O)NC(C)(C)C(=O)OC)[C@@H](C)CC)C(C)C)C(C)C)[C@@H](C)OCc1ccccc1 [SEQ ID NO:21 L-peptide, Boc-Gly-Leu-Aib-Val-Gly-Aib-Val-Val-Ile-Aib-Thr(OBz)-Val-Aib-Val-Ile-Aib-OMe] (Boc-GL[Aib]VG[Aib]VVI[Aib]T(Bn)V[Aib]VI[Aib]-OMe)

Molecule: Ac-Val-Gly-Aib-Val-Val-Ile-Aib-Thr(OBz)-Val-Aib-Val-Val-Aib-NH2 (Ac-VG[Aib]VVI[Aib]XV[Aib]VV[Aib]-NH2; not fully specified (some residues); printed as Ac-Val-Gly-Aib-Val-Val-Ile-Aib-Thr(OBz)-Val-Aib-Val-Val-Aib-NH2) [SEQ ID NO:23 D-peptide]
site of interaction with γ-secretase (γ-secretase [3]): not only interact with the initial substrate-binding site but also extend into the active site

Molecule: Boc-Aib-Ile-Ala-Thr(OBz)-Aib-Ile-Val-Aib-OMe [SEQ ID NO:3]
IC50 [2, 7]: 10 µM

Molecule: Boc-Aib-Val-Val-Ile-Aib-Thr(OBz)-Val-Aib-OMe [SEQ ID NO:8]
IC50 [2, 7]: 6 µM

Molecule: Boc-Ala-Thr(OBz)-Aib-Ile-Val-Aib-OMe [SEQ ID NO:1]
IC50 [2, 7]: 25 µM

Molecule: Boc-D-Val-Gly-Aib-D-Val-D-Val-D-BPA-Aib-D-Thr(OBz)-D-Val-Aib-OMe [SEQ ID NO:11]
IC50 [2, 5]: 0.1 µM

Molecule: Boc-Gly-Aib-Val-Val-Ile-Aib-Thr(OBz)-Val-Aib-OMe [SEQ ID NO:9]
IC50 [2, 7]: 3 µM

Molecule: Boc-Gly-Val-Aib-Ile-Ala-Thr(OBz)-Aib-Ile-Val-Aib-OMe [SEQ ID NO:5]
IC50 [2, 7]: 5 µM

Molecule: Boc-Ile-Ala-Thr(OBz)-Aib-Ile-Val-Aib-OMe [SEQ ID NO:2]
IC50 [2, 7]: 15 µM

Molecule: Boc-Val-Aib-Ile-Ala-Thr(OBz)-Aib-Ile-Val-Aib-OMe [SEQ ID NO:4]
IC50 [2, 7]: 2 µM

Molecule: Boc-Val-Gly-Aib-Val-Val-Ile-Aib-Thr(OBz)-Val-Aib-OMe [SEQ ID NO:10 D-peptide]
site of interaction with γ-secretase (γ-secretase [3]): interacts with the initial substrate-binding site, but not the active site | IC50 (γ-secretase [4]; 50% inhibition of Aβ40 production, read-out: Cell-free Assay IC50): 0.09 µM

Molecule: Boc-Val-Gly-Aib-Val-Val-Ile-Aib-Thr(OBz)-Val-Aib-OMe [SEQ ID NO:10 L-peptide]
IC50 (γ-secretase [4]; reference decapeptide, read-out: IC50, cell-free γ-secretase assay): 30 µM | IC50 [2, 7]: 3 µM

Molecule: Boc-Val-Ile-Aib-Thr(OBz)-Val-Aib-OMe [SEQ ID NO:6]
IC50 [2, 7]: 12 µM

Molecule: Boc-Val-Val-Ile-Aib-Thr(OBz)-Val-Aib-OMe [SEQ ID NO:7]
IC50 [2, 7]: 6 µM
